Values of other authors in patent US20040180103A1, “Use of plants of the genus hypericum for facilitating the synchronization of a circadian rhythm” (priority 2001, published 2004).

Tested on: circadian rhythms in Siberian hamsters
Conditions: 5 h phase shift under daily administration

**Q.** Which “share of animals that adapt to the new light-dark cycle” value does the source give for `COc1ccc2[nH]cc(CCNC(C)=O)c2c1` [melatonin] here?
**A.** The value was 71%.
